Values quoted from earlier work in patent US9072768B2, “Composition and method for increasing effectiveness of radiation or chemotherapy” (Kibow Biotech, Inc., priority 2013, dated 2015).

Tested on: colorectal cancer
Conditions: adjuvant treatment, stage III patients

## O=c1[nH]cc(F)c(=O)[nH]1 [5-Fluorouracil]
  improvement of absolute 5-year survival: approximately 10%
